Laboratory results as given in US20200399238A1, “THERAPEUTIC AURONES” (MIDDLE TENNESSEE STATE UNIVERSITY, priority 2016, published 2020).

Key:
[1] = system: C. albicans (ATCC strain 90028); experiment: Antifungal microdilution broth assay (PrestoBlue), C. albicans; format: cell-based, Candida albicans; settings: Candida albicans, ATCC90028, Table 4A; 100 μM; read-out: C. albicans inhibition (at 100 μM)
Procedure: Sigma-Aldrich) was used as the base medium for testing. […] solution of morpholinepropanesulfonic acid (MOPS; Sigma-Aldrich) was added to the RPMI to a final concentration of 0.165 M for buffering (RPMI-MOPS). This medium was adjusted to a pH of 7.0 with 10 M NaOH and filter sterilized. C. albicans (ATCC strain 90028), C. [NT] strain 66032), and C. tropicalis (ATCC strain 750) were cultured on potato dextrose agar (Sigma-Aldrich) plates, and incubated at 35° C. for 24 hours. For antifungal testing, overnight colonies were adjusted to 1.5×10^3 cells/mL, hereafter referred to as the test inoculum. PrestoBlue® (Life Technologies, Invitrogen, Carlsbad, Calif.), a resazurin-based cell viability reagent that, in metabolically active cells, is reduced from blue, non-fluorescent resazurin, to red, fluorescent resorufin, was used to assess inhibition of yeast growth by the aurones. […] Following addition of aurone, plates were then incubated for 24 hours at 35° C. PrestoBlue was added to a final concentration of 10% in each well and fluorescence read at 560 nm excitation and 590 nm emission, per manufacturer instructions, using a SpectraMax M2e spectrophotometer (Molecular Devices, LLC, Sunnyvale, Calif.). To optimize the PrestoBlue reduction time, RFUs were collected at 15 minute intervals for 4 hours using a reference antifungal. […] IC50 determination was calculated using GraphPad Prism version 7.01 for Windows (GraphPad Software, Inc., La Jolla, Calif.) from the RFUs at dilution points. Calculations were made with a nonlinear regression after transforming the molar concentrations of the aurones into the logarithmic form. Graphing was accomplished utilizing the same program following a four parameter curve fitting sigmoidal plot of the data. All aurones and controls were tested in triplicate and all testing was repeated in at least three independent experiments.

[2] = system: rat skeletal muscle cell line, L6; experiment: cells; format: cell-based; settings: Rattus norvegicus; Table 3A; weighted means of two or more independent trials; read-out: IC50 L6
[3] = system: Trypanosoma cruzi Tulahuen cells expressing beta-galactosidase; experiment: T. cruzi intracellular assay (beta-galactosidase, L6 host cells); settings: Trypanosoma cruzi, TULAHUEN, read-out: IC50 TC-I, Table 3A; weighted means of two or more independent trials

Compound `N#Cc1ccc(/C=C2\Oc3cc(O)ccc3C2=O)cc1` [Sample 9076] has an inhibition at 100 µM [1] of 7.5%.
Compound `N#Cc1ccc(/C=C2\Oc3ccccc3C2=O)cc1` [Sample 2014] has an IC50 [2] of 239 µM, an inhibition at 100 µM [1] of 50.5% and an IC50 [3] of 23.5 µM.
`COc1cccc(/C=C2\Oc3ccccc3C2=O)c1O` [Sample 9055] was tested, and the IC50 [2] was > 100 µM, the inhibition at 100 µM [1] was 16.7% and the IC50 [3] was > 50 µM.
`O=C1/C(=C/c2ccc[nH]2)Oc2ccccc21` [Sample 2021] showed an inhibition at 100 µM [1] of 78.8%.
`COc1cc(OC)c2c(c1)O/C(=C\c1ccc(C)cc1)C2=O` [Sample 7000] was tested, and the inhibition at 100 µM [1] was 45.6%.
`COc1ccc2c(c1)O/C(=C\c1ccc(C#N)cc1)C2=O` [Sample 5006] showed an inhibition at 100 µM [1] of 19.4%.
Work on `O=C1/C(=C/c2cccs2)Oc2ccccc21` [Sample 2004] yielded an inhibition at 100 µM [1] of 65.9%.
Work on `O=C1/C(=C/c2sccc2Br)Oc2ccccc21` [Sample 9060] yielded an inhibition at 100 µM [1] of 7.5%.
With `O=C1/C(=C/c2ccc(O)cc2)Oc2ccccc21` [Sample 9068] the IC50 [2] was > 100 µM, the inhibition at 100 µM [1] was 11.1% and the IC50 [3] was > 50 µM.
Work on `O=C1/C(=C/c2cc(Br)c(Br)s2)Oc2ccccc21` [Sample 9050] yielded an inhibition at 100 µM [1] of 37.4%.
`COc1ccc(/C=C2\Oc3cc(O)ccc3C2=O)cc1O` [Sample 2911] was tested, and the inhibition at 100 µM [1] was 40%.
In the case of `O=C1/C(=C/c2ccc(CO)o2)Oc2ccccc21` [Sample 9067], the inhibition at 100 µM [1] is reported as 17.6%.
Compound `COc1cc(OC)c2c(c1)O/C(=C\c1ccc([N+](=O)[O-])cc1)C2=O` [Sample 7001] has an inhibition at 100 µM [1] of 12.6%.
For `COc1ccc(/C=C2\Oc3c(ccc(O)c3O)C2=O)cc1O` [Sample 1009], the inhibition at 100 µM [1] was 99.4%.
In the case of `O=C1/C(=C/c2ncc[nH]2)Oc2ccccc21` [Sample 2026], the inhibition at 100 µM [1] is reported as 43.8%.
In the case of `Cc1cccc(/C=C2\Oc3ccccc3C2=O)c1` [Sample 9064], the IC50 [2] is reported as 79.9 µM, the inhibition at 100 µM [1] is reported as 32.1% and the IC50 [3] is reported as 37.9 µM.
`O=C1/C(=C/c2ccc(Br)cc2)Oc2cc(O)ccc21` [Sample 2905] showed an inhibition at 100 µM [1] of 16.6%.
`COc1ccc(/C=C2\Oc3ccccc3C2=O)cc1OC` [Sample 2011] was tested, and the IC50 [2] was 51.9 µM, the inhibition at 100 µM [1] was 14.2% and the IC50 [3] was 21.9 µM.
For `O=C1/C(=C/c2cccs2)Oc2c1ccc(O)c2O` [Sample 1001], the inhibition at 100 µM [1] was 26%.
`COc1ccc2c(c1)O/C(=C\c1ccc(Br)cc1)C2=O` [Sample 5005] gave an inhibition at 100 µM [1] of 22.4%.
`O=C1/C(=C/c2cccc3[nH]ccc23)Oc2ccccc21` [Sample 9063] gave an inhibition at 100 µM [1] of 24%.
With `COc1ccc2c(c1)O/C(=C\c1ccc[nH]1)C2=O` [Aurone 5003] the inhibition at 100 µM [1] was 12.4%.
With `N#Cc1cccc(/C=C2\Oc3ccccc3C2=O)c1` [Sample 9070] the IC50 [2] was > 200 µM, the inhibition at 100 µM [1] was 14.7% and the IC50 [3] was 16.7 µM.
For `O=C1/C(=C/c2ccc([N+](=O)[O-])cc2)Oc2ccccc21` [Sample 2010], the IC50 [2] was 249 µM, the inhibition at 100 µM [1] was 3.3% and the IC50 [3] was 20 µM.
With `O=C1/C(=C/c2ccccc2O)Oc2ccccc21` [Sample 9088] the IC50 [2] was > 100 µM, the inhibition at 100 µM [1] was 1% and the IC50 [3] was 18.4 µM.
In the case of `O=C1/C(=C/c2ccc(Br)cc2)Oc2ccccc21` [Sample 2009], the IC50 [2] is reported as > 100 µM, the inhibition at 100 µM [1] is reported as 12.3% and the IC50 [3] is reported as 11.4 µM.
For `COc1ccc2c(c1)O/C(=C\c1ccc(C)cc1)C2=O` [Sample 5002], the inhibition at 100 µM [1] was 37.6%.
In the case of `O=C1/C(=C/c2ccc(C(F)(F)F)cc2)Oc2ccccc21` [Sample 9084], the IC50 [2] is reported as > 400 µM, the inhibition at 100 µM [1] is reported as 17.6% and the IC50 [3] is reported as 9.38 µM.
